Results from the supplement of paper PMC10307832.

Tests used:
Experiment in all cases: relative viability (nuclei count vs DMSO), 5 days (fraction); higher = more cells survive
[1] = compound: CS(=O)(=O)CCNCc1ccc(-c2ccc3ncnc(Nc4ccc(OCc5cccc(F)c5)c(Cl)c4)c3c2)o1 [Lapatinib] + O=C(CCCCCCC(=O)Nc1ccccc1)NO [Vorinostat] (partner 1 µM)
Procedure, shortened: (§1)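 One day after seeding in 1536-well plates, lung cancer cell lines were dosed by pin tool. Dosing was either single-drug or a fixed anchor-drug dose plus five library-drug doses (not always all listed) in √10 steps. After 5 days, nuclei were stained in one fix-and-stain step and counted on 4× images, and relative viability is the nuclei count of treated wells over that of vehicle wells, given as the median of duplicate plates.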

[2] = compound: CC1=NC=CC(=C1)C2=CC=C(C=C2)CC(=O)NC3=CC=C(C=C3)C4=CN=CC=C4 [Wnt-C59] + Cc1cc(Nc2cc(N3CCN(C)CC3)nc(Sc3ccc(NC(=O)C4CC4)cc3)n2)n[nH]1 [Tozasertib] (partner 0.1 µM)
Procedure, shortened: as §1

[3] = compound: CC1=NC=CC(=C1)C2=CC=C(C=C2)CC(=O)NC3=CC=C(C=C3)C4=CN=CC=C4 [Wnt-C59] + CC(=O)c1c(C)c2cnc(Nc3ccc(N4CCNCC4)cn3)nc2n(C2CCCC2)c1=O [Palbociclib] (partner 0.5 µM)
Procedure, shortened: as §1

[4] = compound: CS(=O)(=O)CCNCc1ccc(-c2ccc3ncnc(Nc4ccc(OCc5cccc(F)c5)c(Cl)c4)c3c2)o1 [Lapatinib] + Nc1nc2[nH]cc(CCc3ccc(C(=O)N[C@@H](CCC(=O)O)C(=O)O)cc3)c2c(=O)[nH]1 [Pemetrexed] (partner 0.2 µM)
Procedure, shortened: as §1

| Cell Line | relative viability ([1]; first compound 0.02 µM) | relative viability ([1]; first compound 0.06325 µM) | relative viability ([1]; first compound 0.2 µM) | relative viability ([1]; first compound 0.6325 µM) | relative viability ([1]; first compound 2 µM) | relative viability ([2]; first compound 0.001 µM) | relative viability ([2]; first compound 0.01 µM) | relative viability ([2]; first compound 0.03162 µM) | relative viability ([2]; first compound 0.1 µM) | relative viability ([3]; first compound 0.001 µM) | relative viability ([3]; first compound 0.01 µM) | relative viability ([3]; first compound 0.03162 µM) | relative viability ([3]; first compound 0.1 µM) | relative viability ([4]; first compound 0.02 µM) | relative viability ([4]; first compound 0.06325 µM) | relative viability ([4]; first compound 0.2 µM) | relative viability ([4]; first compound 0.6325 µM) | relative viability ([4]; first compound 2 µM) |
| --- | --- | --- | --- | --- | --- | --- | --- | --- | --- | --- | --- | --- | --- | --- | --- | --- | --- | --- |
| SK-LU-1 | 0.681 | 0.747 | 0.829 | 0.776 | 0.802 | 0.317 | 0.323 | 0.331 | 0.295 | 0.356 | 0.343 | 0.423 | 0.359 | 0.961 | 0.9 | 1.02 | 0.98 | 0.886 |
| NCI-H2347 | 0.501 | 0.629 | 0.554 | 0.689 | 0.547 | 0.581 | 0.453 | 0.446 | 0.618 | 0.437 | 0.445 | 0.484 | 0.417 | – | 0.421 | 0.417 | 0.436 | 0.504 |
| NCI-H661 | 0.758 | 0.783 | 0.79 | 0.736 | 0.605 | 0.351 | 0.324 | 0.352 | 0.357 | 0.409 | 0.357 | 0.436 | 0.387 | 0.872 | 0.773 | 0.834 | 0.736 | 0.756 |
| ChaGo-K-1 | 0.53 | 0.731 | 0.747 | 0.78 | 0.545 | 0.221 | 0.233 | 0.242 | 0.223 | 0.97 | 0.885 | 0.953 | 0.957 | 0.281 | 0.274 | 0.265 | 0.264 | 0.253 |
| LU99A | 0.49 | 0.358 | 0.506 | 0.426 | 0.469 | 0.256 | 0.276 | 0.272 | 0.262 | 0.451 | 0.372 | 0.446 | 0.417 | 0.203 | 0.161 | 0.223 | 0.178 | 0.182 |
| SW 1573 | – | 0.612 | 0.987 | 0.828 | 0.774 | 0.144 | 0.196 | 0.342 | 0.167 | 0.413 | 0.368 | 0.466 | 0.408 | – | 0.716 | 0.883 | 0.882 | 0.759 |
| NCI-H1734 | – | 0.708 | 0.816 | 0.88 | 0.792 | 0.258 | 0.233 | 0.288 | 0.139 | 0.382 | 0.334 | 0.36 | 0.364 | – | 0.422 | 0.411 | 0.425 | 0.383 |
| NCI-H2126 | 0.251 | 0.405 | 0.717 | 0.801 | 0.614 | 0.882 | 0.876 | 0.874 | 0.82 | 0.378 | 0.36 | 0.35 | 0.36 | 0.379 | 0.484 | 0.655 | 0.672 | 0.607 |
